Structures are written as SMILES. Several values for one entry are separate records, joined by “and”; a condition that tells them apart may be missing. Equal entries are not always repeated.

Assay type in all cases: in vivo
The subject of test [1] is Sweet Potato Whitefly (Bemisia tabaci, BEMITA, SPW). Briefly: Bioassay 2: sweet potato whitefly, cotton seedling foliar spray. To be noted: AI alone. As to the method:
Stock solutions were prepared with F1 as well as for each of the active ingredients individually. Test solutions were prepared from the stock solutions. Test solutions were prepared containing F1, the individual active ingredients, and mixtures of F1 with each of the active ingredients. The test solutions for F1 and the individual active ingredients were prepared by adding 500 μL of stock solution to a 25 mL glass vial, then adding 500 μL of acetone, followed by the addition of 9 mL water with 0.025% Tween® 20 to create a 0.001% (w/v) solution. The test solutions containing mixtures of F1, and the individual active ingredients were prepared by adding 500 μL of the active ingredient stock solution to a 25 mL glass vial, followed by 500 μL of the F1 stock solution, then by the addition of 9 mL water with 0.025% Tween® 20 to create a test solution containing 0.001% (w/v) F1 and 0.001% (w/v) of the active ingredient. Each test solution was serially diluted to create desired doses of test solutions (0.001% (w/v), 0.0001% (w/v), 0.00001% (w/v), 0.000001% (w/v), 0.0000001% (w/v), and 0.00000001% (w/v)).
The test solutions were tested against SPW using the following procedure: Cotton seedlings grown in 3-inch pots, pruned so that only one true leaf remained, were used as test substrate. Adult B. tabaci were allowed to colonize the cotton plants and lay eggs for 24 hours after which all adults were removed from the plants using compressed air. Plants were monitored for egg development, and when crawler emergence was underway (>25% emergence based on visual examination using a microscope), the plants were sprayed using the test solutions and methods described above for green peach aphids (GPA). Treated plants were held in a holding room at approximately 25° C. and ambient relative humidity (RH) prior to grading. Evaluation was conducted by counting the number of developed 2-3 instar nymphs per plant under a microscope 7-9 days after treatment. Percent control was measured using Abbott's correction formula (W. S. Abbott, J. Econ. Entomol. 18 (1925), pp. 265-267) as follows:
where X=No. of live nymphs on solvent check plants and Y=No. of live nymphs on treated plants. In Table B2 the “Expected % Control” was calculated using the method described in Colby S. R., Weeds, 1967, 15, 20-22. Bioassay 3: Western Flower Thrips (Frankliniella occidentalis, FRANOC, “WFT”).

For test [2], the system named is Soybean Looper (Chrysodeixis includens, PSEPIN, SBL). Briefly: Bioassay 4: soybean looper, artificial diet, 128-cell tray. To be noted: AI alone. The procedure, abridged: (§1)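 Test solutions (0.0000004–0.04% w/v, i.e. 0.00005–5 μg/cm² on diet) were pipetted onto artificial lepidopteran diet and one 2nd-instar larva was placed per cell, 8 replicates per species, held at ~26° C. Live larvae were counted after 5 days; percent control used Abbott's correction against a solvent check.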

In test [3] the test system is Brown Planthopper (Nilaparvata lugens, NILALU, BPH). The test can be described thus: Bioassay 6: brown planthopper, sprayed rice seedlings. To be noted: AI alone, AI Rate 0.049 g/ha, 6 days. As to the method:
At these rates, F1 and the individual active ingredients were tested at a ratio of 1:1. […] F1 and triflumezopyrim were tested at a ratio of 16:1. Test solutions were prepared containing F1, the individual active ingredients, and mixtures of F1 with each of the active ingredients. Test solutions were prepared by weighing 5 mg of each test chemistry (either alone or in combination depending on the treatment) into a 25 mL glass vial. Next, 1 mL of acetone was added to each vial to dissolve the test chemistries, followed by 19 mL of water with 0.125% Tween 20 adjuvant. This test solution represented the 50 g/ha treatment, which was then serially diluted four-fold to create the three lower rates of 12.5, 3.125, and 0.78 g/ha. Triflumezopyrim was prepared in a similar manner, but two additional serial dilutions were conducted to create solutions representing 6 rates of 12.5, 3.125, 0.78, 0.19, 0.049, and 0.012 g/ha. The higher two doses were discarded, and the four lower doses were used for testing. Each rate was replicated four times, and solvent blanks were used as control treatments.
Five (5) rice seedlings (10-12 days old) planted in 3-inch pots were used as test plants. Rice seedlings were grown in soil and the soil was covered with a 2% agar solution. The test solutions were applied to test plants using a Devries laboratory research sprayer, set to spray at 200 liters per hectare (L/ha) using a TeeJet hollow cone nozzle. Following application, the rice seedlings were dried for 1 hour, after which a single clear plastic tube (2 inches in diameter×12 inches in height) was placed over the seedlings in each pot. The tube was pushed down into the agar to create a sealed test chamber. The agar prevented insects from hiding in the soil and made adult collection and grading easier. Ten to fifteen (10-15) 5th instar BPH nymphs were transferred to each test chamber using a vacuum aspirator. Immediately following BPH infestation, the test chamber was covered with a piece of grade 90 cheesecloth and secured with a rubber band, sealing the test chamber. The test chambers were held at 25° C. for 6 days, after which the total number of live insects was counted in each test chamber. Percent control was measured using Abbott's correction formula (W. S. Abbott, J. Econ. Entomol. 18 (1925), pp. 265-267) as follows:
where X=No. of live insects on solvent check and Y=No. of live insects in treated chambers. In Table B6 the “Expected % Control” was calculated using the method described in Colby S. R., Weeds, 1967, 15, 20-22. Bioassay 7: Corn Earworm (Helicoverpa zea, HELIZE, “CEW”), Fall Armyworm (Spodoptera frugiperda, LAPHFR, “FAW”), Beet Armyworm (Spodoptera exigua, LAPHEG, “BAW”),and Soybean Looper (Chrysodeixis includens, PSEPIN, “SBL”).

Test [4] relates to Fall Armyworm (Spodoptera frugiperda, LAPHFR, FAW). Briefly: Bioassay 4: fall armyworm, artificial diet, 128-cell tray. To be noted: AI alone. The procedure, abridged:
as §1

The subject of test [5] is Corn Earworm (Helicoverpa zea, HELIZE, CEW). Briefly: Bioassay 4: corn earworm, artificial diet, 128-cell tray. To be noted: AI alone. A digest of the protocol: as §1

For the molecule `N#CCNC(=O)c1cnccc1C(F)(F)F` [Flonicamid], the “Average % Control AI” value is 0.0% in test [1] (Wt % AI 0.0001, 7-9 days); 0.0% in test [2] (0.000004 wt %); 0.0% in test [2] (0.00004 wt %); 5.4% and 1.1% in test [3]; 0.0% in test [4] (0.000004 wt %); 0.0% in test [4] (0.00004 wt %). Further, the “Average % Control AI” value in test [5] (0.000004 wt %) and in test [5] (0.00004 wt %) was 0.0% each time.

`O=C1C=C(N(Cc2ccc(Cl)nc2)CC(F)F)CO1` [Flupyradifurone]: the “Average % Control AI” value in test [1] (Wt % AI 0.00001, 7-9 days) was 22.9%; in test [1] (Wt % AI 0.0001, 7-9 days), 39.2%; in test [2] (0.000004 wt %) it was 0.0%; in test [2] (0.00004 wt %) it was 0.0%; in test [3], 16.3% and 7.6%; in test [4] (0.000004 wt %) it was 0.0%. Also, the “Average % Control AI” value in test [4] (0.00004 wt %), in test [5] (0.000004 wt %) and in test [5] (0.00004 wt %) was 0.0% each time.

These data come from patent US20260182575A1, “MOLECULES HAVING PESTICIDAL UTILITY AND INTERMEDIATES AND PROCESSES RELATED THERETO” (CORTEVA AGRISCIENCE LLC, priority 2022, published 2026).
